{"source": "PubChem BioAssay AID1259407", "about": "(Chemical Carcinogenesis Research Information System (CCRIS), 2018)", "system": "CCRIS mutagenicity, Ames/micronucleus/aberration tests", "experiment": "CCRIS mutagenicity studies", "note": "Calls of active or inactive are those of the source. No rule for the calls is given here."}
{"smiles": "FC(F)(F)c1ccccc1Cl", "values": [{"measurement": "mutagenic call", "setting": "Test System: AMES SALMONELLA TYPHIMURIUM, Strain/Indicator: TA97, Metabolic Activation: HAMSTER, LIVER, S-9, AROCLOR 1254 (10%), Method: PREINCUBATION", "result": "inactive; negative"}, {"measurement": "mutagenic call", "setting": "Test System: AMES SALMONELLA TYPHIMURIUM, Strain/Indicator: TA97, Metabolic Activation: HAMSTER, LIVER, S-9, AROCLOR 1254 (30%), Method: PREINCUBATION", "result": "inactive; negative"}, {"measurement": "mutagenic call", "setting": "Test System: AMES SALMONELLA TYPHIMURIUM, Strain/Indicator: TA97, Metabolic Activation: NONE, Method: PREINCUBATION", "result": "inactive; negative"}, {"measurement": "mutagenic call", "setting": "Test System: AMES SALMONELLA TYPHIMURIUM, Strain/Indicator: TA97, Metabolic Activation: RAT, LIVER, S-9, AROCLOR 1254 (10%), Method: PREINCUBATION", "result": "inactive; negative"}, {"measurement": "mutagenic call", "setting": "Test System: AMES SALMONELLA TYPHIMURIUM, Strain/Indicator: TA97, Metabolic Activation: RAT, LIVER, S-9, AROCLOR 1254 (30%), Method: PREINCUBATION", "result": "inactive; negative"}, {"measurement": "mutagenic call", "setting": "Test System: AMES SALMONELLA TYPHIMURIUM, Strain/Indicator: TA98, Metabolic Activation: HAMSTER, LIVER, S-9, AROCLOR 1254 (10%), Method: PREINCUBATION", "result": "inactive; negative"}, {"measurement": "mutagenic call", "setting": "Test System: AMES SALMONELLA TYPHIMURIUM, Strain/Indicator: TA98, Metabolic Activation: HAMSTER, LIVER, S-9, AROCLOR 1254 (30%), Method: PREINCUBATION", "result": "inactive; negative"}, {"measurement": "mutagenic call", "setting": "Test System: AMES SALMONELLA TYPHIMURIUM, Strain/Indicator: TA98, Metabolic Activation: NONE, Method: PREINCUBATION", "result": "inactive; negative"}, {"measurement": "mutagenic call", "setting": "Test System: AMES SALMONELLA TYPHIMURIUM, Strain/Indicator: TA98, Metabolic Activation: NONE, Method: STANDARD PLATE", "result": "inactive; negative"}, {"measurement": "mutagenic call", "setting": "Test System: AMES SALMONELLA TYPHIMURIUM, Strain/Indicator: TA98, Metabolic Activation: RAT, LIVER, S-9, AROCLOR 1254 (10%), Method: PREINCUBATION", "result": "inactive; negative"}, {"measurement": "mutagenic call", "setting": "Test System: AMES SALMONELLA TYPHIMURIUM, Strain/Indicator: TA98, Metabolic Activation: RAT, LIVER, S-9, AROCLOR 1254 (30%), Method: PREINCUBATION", "result": "inactive; negative"}, {"measurement": "mutagenic call", "setting": "Test System: AMES SALMONELLA TYPHIMURIUM, Strain/Indicator: TA98, Metabolic Activation: RAT, LIVER, S-9, AROCLOR 1254, Method: STANDARD PLATE", "result": "inactive; negative"}, {"measurement": "mutagenic call", "setting": "Test System: AMES SALMONELLA TYPHIMURIUM, Strain/Indicator: TA100, Metabolic Activation: HAMSTER, LIVER, S-9, AROCLOR 1254 (10%), Method: PREINCUBATION", "result": "inactive; negative"}, {"measurement": "mutagenic call", "setting": "Test System: AMES SALMONELLA TYPHIMURIUM, Strain/Indicator: TA100, Metabolic Activation: HAMSTER, LIVER, S-9, AROCLOR 1254 (30%), Method: PREINCUBATION", "result": "inactive; negative"}, {"measurement": "mutagenic call", "setting": "Test System: AMES SALMONELLA TYPHIMURIUM, Strain/Indicator: TA100, Metabolic Activation: NONE, Method: PREINCUBATION", "result": "inactive; negative"}, {"measurement": "mutagenic call", "setting": "Test System: AMES SALMONELLA TYPHIMURIUM, Strain/Indicator: TA100, Metabolic Activation: NONE, Method: STANDARD PLATE", "result": "inactive; negative"}, {"measurement": "mutagenic call", "setting": "Test System: AMES SALMONELLA TYPHIMURIUM, Strain/Indicator: TA100, Metabolic Activation: RAT, LIVER, S-9, AROCLOR 1254 (10%), Method: PREINCUBATION", "result": "inactive; negative"}, {"measurement": "mutagenic call", "setting": "Test System: AMES SALMONELLA TYPHIMURIUM, Strain/Indicator: TA100, Metabolic Activation: RAT, LIVER, S-9, AROCLOR 1254 (30%), Method: PREINCUBATION", "result": "inactive; negative"}, {"measurement": "mutagenic call", "setting": "Test System: AMES SALMONELLA TYPHIMURIUM, Strain/Indicator: TA100, Metabolic Activation: RAT, LIVER, S-9, AROCLOR 1254, Method: STANDARD PLATE", "result": "inactive; negative"}, {"measurement": "mutagenic call", "setting": "Test System: AMES SALMONELLA TYPHIMURIUM, Strain/Indicator: TA1535, Metabolic Activation: HAMSTER, LIVER, S-9, AROCLOR 1254 (10%), Method: PREINCUBATION", "result": "inactive; negative"}, {"measurement": "mutagenic call", "setting": "Test System: AMES SALMONELLA TYPHIMURIUM, Strain/Indicator: TA1535, Metabolic Activation: HAMSTER, LIVER, S-9, AROCLOR 1254 (30%), Method: PREINCUBATION", "result": "inactive; negative"}, {"measurement": "mutagenic call", "setting": "Test System: AMES SALMONELLA TYPHIMURIUM, Strain/Indicator: TA1535, Metabolic Activation: NONE, Method: PREINCUBATION", "result": "inactive; negative"}, {"measurement": "mutagenic call", "setting": "Test System: AMES SALMONELLA TYPHIMURIUM, Strain/Indicator: TA1535, Metabolic Activation: NONE, Method: STANDARD PLATE", "result": "inactive; negative"}, {"measurement": "mutagenic call", "setting": "Test System: AMES SALMONELLA TYPHIMURIUM, Strain/Indicator: TA1535, Metabolic Activation: RAT, LIVER, S-9, AROCLOR 1254 (10%), Method: PREINCUBATION", "result": "inactive; negative"}, {"measurement": "mutagenic call", "setting": "Test System: AMES SALMONELLA TYPHIMURIUM, Strain/Indicator: TA1535, Metabolic Activation: RAT, LIVER, S-9, AROCLOR 1254 (30%), Method: PREINCUBATION", "result": "inactive; negative"}, {"measurement": "mutagenic call", "setting": "Test System: AMES SALMONELLA TYPHIMURIUM, Strain/Indicator: TA1535, Metabolic Activation: RAT, LIVER, S-9, AROCLOR 1254, Method: STANDARD PLATE", "result": "inactive; negative"}, {"measurement": "mutagenic call", "setting": "Test System: AMES SALMONELLA TYPHIMURIUM, Strain/Indicator: TA1537, Metabolic Activation: HAMSTER, LIVER, S-9, AROCLOR 1254 (30%), Method: PREINCUBATION", "result": "inactive; negative"}, {"measurement": "mutagenic call", "setting": "Test System: AMES SALMONELLA TYPHIMURIUM, Strain/Indicator: TA1537, Metabolic Activation: NONE, Method: PREINCUBATION", "result": "inactive; negative"}, {"measurement": "mutagenic call", "setting": "Test System: AMES SALMONELLA TYPHIMURIUM, Strain/Indicator: TA1537, Metabolic Activation: NONE, Method: STANDARD PLATE", "result": "inactive; negative"}, {"measurement": "mutagenic call", "setting": "Test System: AMES SALMONELLA TYPHIMURIUM, Strain/Indicator: TA1537, Metabolic Activation: RAT, LIVER, S-9, AROCLOR 1254 (30%), Method: PREINCUBATION", "result": "inactive; negative"}, {"measurement": "mutagenic call", "setting": "Test System: AMES SALMONELLA TYPHIMURIUM, Strain/Indicator: TA1537, Metabolic Activation: RAT, LIVER, S-9, AROCLOR 1254, Method: STANDARD PLATE", "result": "inactive; negative"}, {"measurement": "mutagenic call", "setting": "Test System: AMES SALMONELLA TYPHIMURIUM, Strain/Indicator: TA1538, Metabolic Activation: NONE, Method: STANDARD PLATE", "result": "inactive; negative"}, {"measurement": "mutagenic call", "setting": "Test System: AMES SALMONELLA TYPHIMURIUM, Strain/Indicator: TA1538, Metabolic Activation: RAT, LIVER, S-9, AROCLOR 1254, Method: STANDARD PLATE", "result": "inactive; negative"}]}
{"smiles": "Cc1c(O)c(=O)ccn1C", "values": [{"measurement": "mutagenic call", "setting": "Test System: MOUSE LYMPHOMA, Strain/Indicator: L5178Y (TK+/TK-), Metabolic Activation: NONE, Method: SUSPENSION/PLATE", "result": "active; positive. reevaluation of results: positive"}, {"measurement": "mutagenic call", "setting": "Test System: MOUSE LYMPHOMA, Strain/Indicator: L5178Y (TK+/TK-), Metabolic Activation: RAT, LIVER, S-9, AROCLOR 1254, Method: SUSPENSION/PLATE", "result": "active; positive. reevaluation of results: equivocal"}]}
